Measurements as given in patent US20200079766A1, “MONOCYCLIC OGA INHIBITOR COMPOUNDS” (Janssen Pharmaceutica NV, priority 2016, published 2020).

Experiments:
[1] = molecular target: T1, recombinant human Meningioma Expressed Antigen 5 (MGEA5), also referred to as O-GlcNAcase (OGA) (Homo sapiens, UniProt O60502); experiment: OGA biochemical assay: inhibition of FM-GlcNAc hydrolysis, fluorescence; protocol A (10 nM OGA, 1 h) or protocol B (2 nM OGA, 6 h); conditions: Enzymatic protocol B (2 nM OGA, 6 h); for IC50: read-out: Enzymatic hOGA, pIC50 (converted)
T1 construct: Full length OGA enzyme was purchased at OriGene (cat # TP322411); purchased OriGene TP322411
T1 sequence (O60502 1-916): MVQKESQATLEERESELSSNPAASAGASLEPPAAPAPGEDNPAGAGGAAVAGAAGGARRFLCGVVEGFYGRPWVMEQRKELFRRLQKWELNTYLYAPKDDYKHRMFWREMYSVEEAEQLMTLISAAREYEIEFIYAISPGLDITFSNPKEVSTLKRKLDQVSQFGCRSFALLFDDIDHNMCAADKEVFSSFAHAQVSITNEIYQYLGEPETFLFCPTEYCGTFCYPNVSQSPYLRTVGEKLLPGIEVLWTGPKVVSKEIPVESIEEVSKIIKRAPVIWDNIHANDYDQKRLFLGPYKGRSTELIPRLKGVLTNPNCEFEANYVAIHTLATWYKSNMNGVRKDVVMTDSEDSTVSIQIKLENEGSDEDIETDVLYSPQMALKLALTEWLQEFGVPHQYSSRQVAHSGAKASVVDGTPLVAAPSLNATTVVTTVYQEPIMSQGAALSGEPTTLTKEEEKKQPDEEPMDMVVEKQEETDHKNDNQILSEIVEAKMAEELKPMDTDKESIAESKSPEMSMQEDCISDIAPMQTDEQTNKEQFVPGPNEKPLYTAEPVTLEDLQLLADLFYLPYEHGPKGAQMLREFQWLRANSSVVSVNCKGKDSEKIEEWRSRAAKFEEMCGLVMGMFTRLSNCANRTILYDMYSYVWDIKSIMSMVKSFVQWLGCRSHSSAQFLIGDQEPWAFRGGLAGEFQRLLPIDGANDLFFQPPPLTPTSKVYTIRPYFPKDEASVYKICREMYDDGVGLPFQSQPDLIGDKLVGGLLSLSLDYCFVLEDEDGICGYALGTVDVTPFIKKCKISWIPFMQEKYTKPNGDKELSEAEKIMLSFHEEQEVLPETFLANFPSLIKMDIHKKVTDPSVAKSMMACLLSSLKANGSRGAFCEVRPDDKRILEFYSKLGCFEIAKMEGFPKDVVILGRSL
In short: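 Full-length human OGA in 200 mM citrate/phosphate pH 7.2 with 0.005% Tween-20, compound pre-incubated 60 min at RT, then 100 uM FM-GlcNAc (final); 10 nM enzyme for 1 h or 2 nM for 6 h at RT. Stopped with pH 11.0 carbonate; fluorescein read at ex 485/em 538 nm. IC50 and Hill coefficient from curve fit.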

[2] = system: OGA in HEK293 cells inducible for P301L mutant human Tau (isoform 2N4R); experiment: OGA cellular assay: immunocytochemical detection of O-GlcNAcylated proteins (CTD110.6 antibody) after 6 h incubation; assay type: cell-based; conditions: for Emax / EC50: Homo sapiens, HEK293, 6 h; for Emax / Cellular Emax (%): maximum = Thiamet G 200 uM; for EC50: read-out: Cellular hOGA, pEC50 (converted)
Experimental: HEK293 cells inducible for P301L mutant human Tau (isoform 2N4R) were established at Janssen. Thiamet-G was used for both plate validation (high control) and as reference compound (reference EC50 assay validation). OGA inhibition is evaluated through the immunocytochemical (ICC) detection of O-GlcNAcylated proteins by the use of a monoclonal antibody (CTD110.6; Cell Signaling, #9875) detecting O-GlcNAcylated residues as previoulsy described (Dorfmueller et al. 2010 Chemistry & biology, 17:1250). Inhibition of OGA will result in an increase of O-GlcNAcylated protein levels resulting in an increased signal in the experiment. Cell nuclei are stained with Hoechst to give a cell culture quality control and a rough estimate of immediate compounds toxicity, if any. ICC pictures are imaged with a Perkin Elmer Opera Phenix plate microscope and quantified with the provided software Perkin Elmer Harmony 4.1.
Cells were propagated in DMEM high Glucose (Sigma, # D5796) following standard procedures. 2 days before the cell assay cells are split, counted and seeded in Poly-D-Lysine (PDL) coated 96-wells (Greiner, #655946) plate at a cell density of 12,000 cells per cm^2 (4,000 cells per well) in 100 μl of Assay Medium (Low Glucose medium is used to reduce basal levels of GlcNAcylation) (Park et al. 2014 The Journal of biological chemistry 289:13519). At the day of compound test medium from assay plates was removed and replenished with 90 μl of fresh Assay Medium. 10 μl of compounds at a 10 fold final concentration were added to the wells. Plates were centrifuged shortly before incubation in the cell incubator for 6 hours. DMSO concentration was set to 0.2%. Medium is discarded by applying vacuum. For staining of cells medium was removed and cells washed once with 100 μl D-PBS (Sigma, # D8537). From next step onwards unless other stated assay volume was always 50 μl and incubation was performed without agitation and at room temperature. Cells were fixed in 50 μl of a 4% paraformaldehyde (PFA, Alpha aesar, #043368) PBS solution for 15 minutes at room temperature. […] Before analysis samples were washed 2 times manually for 5 minutes in ICC base buffer.
Imaging is performed using Perkin Elmer Phenix Opera using a water 20× objective and recording 9 fields per well. Intensity readout at 488 nm is used as a measure of O-GlcNAcylation level of total proteins in wells. To assess potential toxicity of compounds nuclei were counted using the Hoechst staining. IC50-values are calculated using parametric non-linear regression model fitting. As a maximum inhibition Thiamet G at a 200 uM concentration is present on each plate. In addition, a concentration response of Thiamet G is calculated on each plate.

| Structure (SMILES) | Emax [1] [%] | IC50 [1] [nM] | Emax [2] [%] | EC50 [2] [nM] | Enzymatic Emax (%) [1] [%] | Enzymatic hOGA; pIC50 [1] | Cellular hOGA; pEC50 [2] | Cellular Emax (%) [2] [%] |
| --- | --- | --- | --- | --- | --- | --- | --- | --- |
| CC(=O)Nc1ncc(CN2CC[C@H](Cc3cc(C(F)(F)F)cnc3C)C2)s1 [compound 51] | 98.3 | 53.7 | 93.5 | 123 | – | – | – | – |
| CC(=O)Nc1ncc(CN2CC[C@H](Cc3cc(C)c(F)cn3)C2)s1 [compound 52] | 100 | 14.8 | 95.4 | 91.2 | – | – | – | – |
| CC(=O)Nc1ncc(CN2CCC(Cc3cc(C(F)(F)F)ccn3)C2)s1 (stereo not drawn) [compound 53] | – | – | – | – | 99.4 | 7.05 | 6.76 | 85.6 |
| CC(=O)Nc1ncc(CN2CC[C@H](Cc3nc(C)ccc3C(F)(F)F)C2)s1 [compound 54] | 100 | 28.8 | 75.9 | 234 | – | – | – | – |
| CC(=O)Nc1ncc(CN2CC[C@H](Cc3ccnc(F)c3)C2)s1 [compound 56] | 101 | 22.9 | 90.3 | 64.6 | – | – | – | – |
| CC(=O)Nc1ncc(CN2CC[C@H](Cc3ncc(C)nc3C)C2)s1 [compound 58] | 101 | 3.16 | 90.6 | 40.7 | – | – | – | – |
| CC(=O)Nc1ncc(CN2CC[C@H](Cc3cc(C)cnn3)C2)s1 [compound 59] | 101 | 25.7 | 80.3 | 145 | – | – | – | – |
| CC(=O)Nc1ncc(CN2CCC(Cc3cc(C(F)(F)F)cc(C)n3)C2)s1 (stereo not drawn) [compound 60] | – | – | – | – | 101.3 | 7.30 | 7.03 | 87.4 |
| CC(=O)Nc1ncc(CN2CC[C@H](Cc3ccc(C)nc3)C2)s1 [compound 61] | – | – | – | – | 101.2 | 7.71 | 7.22 | 96.3 |
| CC(=O)Nc1ncc(CN2CC[C@H](Cc3cnc(C)nc3)C2)s1 [compound 62] | – | – | – | – | 102.4 | 7.93 | 7.20 | 81.8 |
| CC(=O)Nc1ncc(CN2CC[C@H](Cc3ccnc(C)c3)C2)s1 [compound 63] | – | – | – | – | 101.9 | 7.90 | 7.46 | 90.1 |
| CC(=O)Nc1ncc(CN2CCC(Cc3cnc(C(F)(F)F)cn3)C2)s1 (stereo not drawn) [compound 64] | – | – | – | – | 102.9 | 7.34 | 7.04 | 89.3 |
| COc1cncc(CC2CCN(Cc3cnc(NC(C)=O)s3)C2)n1 (stereo not drawn) [compound 66] | – | – | – | – | 101 | 8.53 | 7.43 | 100.6 |
| COc1nccnc1CC1CCN(Cc2cnc(NC(C)=O)s2)C1 (stereo not drawn) [compound 67] | – | – | – | – | 100.9 | 7.70 | 6.92 | 84.5 |
| CC(=O)Nc1ncc(CN2CC[C@H](Cc3cc(C)c(C)cn3)C2)s1 [compound 69] | 103 | 6.17 | 101 | 74.1 | – | – | – | – |
| CC(=O)Nc1ncc(CN2CC[C@H](Cc3nccc(C)c3C)C2)s1 [compound 70] | 102 | 66.1 | 97.7 | 129 | – | – | – | – |
| CC(=O)Nc1ncc(CN2CC[C@H](Cc3ccc(C)nc3C)C2)s1 [compound 71] | 99.6 | 12 | 94.8 | 36.3 | – | – | – | – |
| CC(=O)Nc1ncc(CN2CC[C@H](Cc3ccnc(C)c3C)C2)s1 [compound 72] | 102 | 7.94 | 109 | 32.4 | – | – | – | – |
| CC(=O)Nc1ncc(CN2CC[C@H](Cc3cc(C)ncc3C(F)(F)F)C2)s1 [compound 73] | – | – | – | – | 101.4 | 7.81 | 6.95 | 94 |
| CC(=O)Nc1ncc(CN2CC[C@H](Cc3ccncc3C)C2)s1 [compound 74] | – | – | – | – | 101 | 8.01 | 7.34 | 115.8 |
| CC(=O)Nc1ncc(CN2CCC(Cc3ncc(F)cc3F)C2)s1 (stereo not drawn) [compound 75] | – | – | – | – | 99.3 | 7.63 | 7.11 | 104.1 |
| CC(=O)Nc1ncc(CN2CC[C@H](Cc3cc(C)nc(C(F)(F)F)c3)C2)s1 [compound 76] | – | – | – | – | 102.4 | 7.59 | 7.56 | 92.3 |
| CC(=O)Nc1ncc(CN2CCC(Cc3cc(C)nc(C)n3)C2)s1 (stereo not drawn) [compound 77] | – | – | – | – | 101.8 | 7.91 | 7.27 | 91.1 |
| CCc1cc(C[C@H]2CCN(Cc3cnc(NC(C)=O)s3)C2)cc(C)n1.Cl [compound 80] | – | – | – | – | 101.5 | 8.24 | 7.94 | 90 |
| CC(=O)Nc1ncc(CN2CCC(OCc3cc(C)nc(C)c3)C2)s1 (stereo not drawn) [compound 81] | 102 | 72.4 | 51.7 | 501 | – | – | – | – |
| CC(=O)Nc1ncc(CN2CC[C@H](Cc3ccc(C)nc3C#N)C2)s1 [compound 84] | – | – | – | – | 102.6 | 8.30 | 7.43 | 81.9 |
| CC(=O)Nc1ncc(CN2CC[C@H](Cc3cc(C)cc(C)n3)C2)s1 [compound 85] | 101 | 8.71 | 86.9 | 46.8 | – | – | – | – |
| CC(=O)Nc1ncc(CN2CCC(Cc3cnc(C)c(C)n3)C2)s1 (stereo not drawn) [compound 86] | – | – | – | – | 101.3 | 8.49 | 7.4 | 83.5 |
| CC(=O)Nc1ncc(CN2CCC(COc3cc(C)nc(C)c3)C2)s1 (stereo not drawn) [compound 89] | 100 | 26.3 | 72.4 | 81.3 | – | – | – | – |
| CC(=O)Nc1ncc(CN2CCC(Cc3ccc(C)nn3)C2)s1 (stereo not drawn) [compound 90] | – | – | – | – | 100 | 7.77 | 6.83 | 73.7 |
